# Results: patent US4245106A, “Process for the preparation of 1-alkyl-3-aryl-4-pyrazolecarboxylates” (Monsanto Company, priority 1979, dated 1981)
# Key:
# Assay type in all cases: in vivo
# Cocklebur [1] = experiment: pre-emergent herbicidal activity test
# Procedure: (§1) Table II summarizes results of tests conducted to determine the pre-emergent as well as the post-emergent herbicidal activity of the compounds. The pre-emergent test was conducted as follows:
# (§2) A good grade of top soil was placed in aluminum pans and compacted to a depth of three-eighths to one-half inch from the top of the pan. On the top of the soil was placed a predetermined number of seeds or vegetative propagules of various plant species. The soil required to level fill the pans after seeding or adding vegetative propagules was weighed into a pan. A known amount of the active ingredient applied in a solvent or as a wettable powder and the soil were thoroughly mixed, and used as a cover layer for prepared pans. After treatment the pans were moved into a greenhouse bench where they were watered from below as needed to give adequate moisture for germination and growth.
# (§3) A herbicial rating code was used to signify the extent of phytotoxicity of each species. The rating are defined as follows: […]
# Quackgrass [2] = experiment: pre-emergent herbicidal activity test
# Procedure: as §1, §2, §3
# Morningglory [3] = experiment: pre-emergent herbicidal activity test
# Procedure: as §1, §2, §3
# Bromus tectorum [4] = experiment: pre-emergent herbicidal activity test
# Procedure: as §1, §2, §3
# Barnyard grass [5] = experiment: pre-emergent herbicidal activity test
# Procedure: as §1, §2, §3
# Canada Thistle [6] = experiment: pre-emergent herbicidal activity test
# Procedure: as §1, §2, §3
# Smartweed [7] = experiment: pre-emergent herbicidal activity test
# Procedure: as §1, §2, §3
# Johnsongrass [8] = experiment: pre-emergent herbicidal activity test
# Procedure: as §1, §2, §3
# Lambsquarter [9] = experiment: pre-emergent herbicidal activity test
# Procedure: as §1, §2, §3
# Velvetleaf [10] = experiment: pre-emergent herbicidal activity test
# Procedure: as §1, §2, §3
# Nutsedge [11] = experiment: pre-emergent herbicidal activity test
# Procedure: as §1, §2, §3
# Cocklebur [12] = experiment: post-emergent herbicidal activity test
# Procedure: (§4) The post-emergent tests were conducted as follows. The active ingredients are applied in spray form to two or three-week old specimens of various plant species. The spray, a solution or wettable powder suspension containing the appropriate rate of active ingredient to give the desired test rate and a surfactant, is applied to the plants. The treated plants are placed in a greenhouse and unless otherwise noted approximately four weeks later the effects are observed and recorded.
# Quackgrass [13] = experiment: post-emergent herbicidal activity test
# Procedure: as §4
# Morningglory [14] = experiment: post-emergent herbicidal activity test
# Procedure: as §4
# Bromus tectorum [15] = experiment: post-emergent herbicidal activity test
# Procedure: as §4
# Barnyard grass [16] = experiment: post-emergent herbicidal activity test
# Procedure: as §4
# Canada Thistle [17] = experiment: post-emergent herbicidal activity test
# Procedure: as §4
# Smartweed [18] = experiment: post-emergent herbicidal activity test
# Procedure: as §4
# Johnsongrass [19] = experiment: post-emergent herbicidal activity test
# Procedure: as §4
# Lambsquarter [20] = experiment: post-emergent herbicidal activity test
# Procedure: as §4
# Velvetleaf [21] = experiment: post-emergent herbicidal activity test
# Procedure: as §4
# Nutsedge [22] = experiment: post-emergent herbicidal activity test
# Procedure: as §4
# [23] = 11.2 Kg/Ha, approximately 28 days after seeding and treating
# [24] = 11.2 Kg/Ha, approximately four weeks later
# [25] = *11.2 Kg/Ha, observed approximately 14 days after treatment
# Note: ranges in brackets are in %.
compound,measurement,setting,value
CCOC(=O)c1cn(C)nc1-c1ccc(C(F)(F)F)cc1 [Example 17],"Pre-Emergent herbicidal rating, B Cocklebur",Cocklebur [1]; [23],0 (0-24)
same,"Pre-Emergent herbicidal rating, H Quackgrass",Quackgrass [2]; [23],0 (0-24)
same,"Pre-Emergent herbicidal rating, D Morningglory",Morningglory [3]; [23],0 (0-24)
same,"Pre-Emergent herbicidal rating, J Bromus tectorum",Bromus tectorum [4]; [23],1 (25-49)
same,"Pre-Emergent herbicidal rating, K Barnyard grass",Barnyard grass [5]; [23],2 (50-74)
same,"Pre-Emergent herbicidal rating, A Canada Thistle",Canada Thistle [6]; [23],0 (0-24)
same,"Pre-Emergent herbicidal rating, F Smartweed",Smartweed [7]; [23],2 (50-74)
same,"Pre-Emergent herbicidal rating, I Johnsongrass",Johnsongrass [8]; [23],0 (0-24)
same,"Pre-Emergent herbicidal rating, E Lambsquarter",Lambsquarter [9]; [23],3 (75-100)
same,"Pre-Emergent herbicidal rating, C Velvetleaf",Velvetleaf [10]; [23],0 (0-24)
same,"Pre-Emergent herbicidal rating, G Nutsedge",Nutsedge [11]; [23],1 (25-49)
same,"Post-Emergent herbicidal rating, B Cocklebur",Cocklebur [12]; [24],0 (0-24)
same,"Post-Emergent herbicidal rating, H Quackgrass",Quackgrass [13]; [24],0 (0-24)
same,"Post-Emergent herbicidal rating, D Morningglory",Morningglory [14]; [24],0 (0-24)
same,"Post-Emergent herbicidal rating, J Bromus tectorum",Bromus tectorum [15]; [24],0 (0-24)
same,"Post-Emergent herbicidal rating, K Barnyard grass",Barnyard grass [16]; [24],0 (0-24)
same,"Post-Emergent herbicidal rating, A Canada Thistle",Canada Thistle [17]; [24],1 (25-49)
same,"Post-Emergent herbicidal rating, F Smartweed",Smartweed [18]; [24],0 (0-24)
same,"Post-Emergent herbicidal rating, I Johnsongrass",Johnsongrass [19]; [24],0 (0-24)
same,"Post-Emergent herbicidal rating, E Lambsquarter",Lambsquarter [20]; [24],0 (0-24)
same,"Post-Emergent herbicidal rating, C Velvetleaf",Velvetleaf [21]; [24],0 (0-24)
same,"Post-Emergent herbicidal rating, G Nutsedge",Nutsedge [22]; [24],0 (0-24)
CCOC(=O)c1cn(CC)nc1-c1cccc(C(F)(F)F)c1 [Example 1],"Pre-Emergent herbicidal rating, B Cocklebur",Cocklebur [1]; [23],0 (0-24)
same,"Pre-Emergent herbicidal rating, B Cocklebur",Cocklebur [1]; [25],1 (25-49)
same,"Pre-Emergent herbicidal rating, H Quackgrass",Quackgrass [2]; [23],0 (0-24)
same,"Pre-Emergent herbicidal rating, H Quackgrass",Quackgrass [2]; [25],1 (25-49)
same,"Pre-Emergent herbicidal rating, D Morningglory",Morningglory [3]; [23],0 (0-24)
same,"Pre-Emergent herbicidal rating, D Morningglory",Morningglory [3]; [25],2 (50-74)
same,"Pre-Emergent herbicidal rating, J Bromus tectorum",Bromus tectorum [4]; [23],1 (25-49)
same,"Pre-Emergent herbicidal rating, J Bromus tectorum",Bromus tectorum [4]; [25],2 (50-74)
same,"Pre-Emergent herbicidal rating, K Barnyard grass",Barnyard grass [5]; [23],3 (75-100)
same,"Pre-Emergent herbicidal rating, K Barnyard grass",Barnyard grass [5]; [25],3 (75-100)
same,"Pre-Emergent herbicidal rating, A Canada Thistle",Canada Thistle [6]; [23],1 (25-49)
same,"Pre-Emergent herbicidal rating, A Canada Thistle",Canada Thistle [6]; [25],1 (25-49)
same,"Pre-Emergent herbicidal rating, F Smartweed",Smartweed [7]; [23],1 (25-49)
same,"Pre-Emergent herbicidal rating, F Smartweed",Smartweed [7]; [25],3 (75-100)
same,"Pre-Emergent herbicidal rating, I Johnsongrass",Johnsongrass [8]; [23],0 (0-24)
same,"Pre-Emergent herbicidal rating, I Johnsongrass",Johnsongrass [8]; [25],0 (0-24)
same,"Pre-Emergent herbicidal rating, E Lambsquarter",Lambsquarter [9]; [23],3 (75-100)
same,"Pre-Emergent herbicidal rating, E Lambsquarter",Lambsquarter [9]; [25],3 (75-100)
same,"Pre-Emergent herbicidal rating, C Velvetleaf",Velvetleaf [10]; [23],3 (75-100)
same,"Pre-Emergent herbicidal rating, C Velvetleaf",Velvetleaf [10]; [25],3 (75-100)
same,"Pre-Emergent herbicidal rating, G Nutsedge",Nutsedge [11]; [23],0 (0-24)
same,"Pre-Emergent herbicidal rating, G Nutsedge",Nutsedge [11]; [25],0 (0-24)
same,"Post-Emergent herbicidal rating, B Cocklebur",Cocklebur [12]; [24],1 (25-49)
same,"Post-Emergent herbicidal rating, B Cocklebur",Cocklebur [12]; [25],1 (25-49)
same,"Post-Emergent herbicidal rating, H Quackgrass",Quackgrass [13]; [24],0 (0-24)
same,"Post-Emergent herbicidal rating, H Quackgrass",Quackgrass [13]; [25],1 (25-49)
same,"Post-Emergent herbicidal rating, D Morningglory",Morningglory [14]; [24],1 (25-49)
same,"Post-Emergent herbicidal rating, D Morningglory",Morningglory [14]; [25],1 (25-49)
same,"Post-Emergent herbicidal rating, J Bromus tectorum",Bromus tectorum [15]; [24],0 (0-24)
same,"Post-Emergent herbicidal rating, J Bromus tectorum",Bromus tectorum [15]; [25],1 (25-49)
same,"Post-Emergent herbicidal rating, K Barnyard grass",Barnyard grass [16]; [24],0 (0-24)
same,"Post-Emergent herbicidal rating, K Barnyard grass",Barnyard grass [16]; [25],1 (25-49)
same,"Post-Emergent herbicidal rating, A Canada Thistle",Canada Thistle [17]; [24],1 (25-49)
same,"Post-Emergent herbicidal rating, A Canada Thistle",Canada Thistle [17]; [25],1 (25-49)
same,"Post-Emergent herbicidal rating, F Smartweed",Smartweed [18]; [24],0 (0-24)
same,"Post-Emergent herbicidal rating, F Smartweed",Smartweed [18]; [25],1 (25-49)
same,"Post-Emergent herbicidal rating, I Johnsongrass",Johnsongrass [19]; [24],0 (0-24)
same,"Post-Emergent herbicidal rating, I Johnsongrass",Johnsongrass [19]; [25],1 (25-49)
same,"Post-Emergent herbicidal rating, E Lambsquarter",Lambsquarter [20]; [24],1 (25-49)
same,"Post-Emergent herbicidal rating, E Lambsquarter",Lambsquarter [20]; [25],1 (25-49)
same,"Post-Emergent herbicidal rating, C Velvetleaf",Velvetleaf [21]; [24],1 (25-49)
same,"Post-Emergent herbicidal rating, C Velvetleaf",Velvetleaf [21]; [25],1 (25-49)
same,"Post-Emergent herbicidal rating, G Nutsedge",Nutsedge [22]; [24],0 (0-24)
same,"Post-Emergent herbicidal rating, G Nutsedge",Nutsedge [22]; [25],1 (25-49)
CCC(C)OC(=O)c1cn(C)nc1-c1cccc(C(F)(F)F)c1 (centres unmarked) [Example 20],"Pre-Emergent herbicidal rating, B Cocklebur",Cocklebur [1]; [23],0 (0-24)
same,"Pre-Emergent herbicidal rating, H Quackgrass",Quackgrass [2]; [23],0 (0-24)
same,"Pre-Emergent herbicidal rating, D Morningglory",Morningglory [3]; [23],0 (0-24)
same,"Pre-Emergent herbicidal rating, J Bromus tectorum",Bromus tectorum [4]; [23],0 (0-24)
same,"Pre-Emergent herbicidal rating, K Barnyard grass",Barnyard grass [5]; [23],3 (75-100)
same,"Pre-Emergent herbicidal rating, A Canada Thistle",Canada Thistle [6]; [23],0 (0-24)
same,"Pre-Emergent herbicidal rating, F Smartweed",Smartweed [7]; [23],1 (25-49)
same,"Pre-Emergent herbicidal rating, I Johnsongrass",Johnsongrass [8]; [23],0 (0-24)
same,"Pre-Emergent herbicidal rating, E Lambsquarter",Lambsquarter [9]; [23],3 (75-100)
same,"Pre-Emergent herbicidal rating, C Velvetleaf",Velvetleaf [10]; [23],0 (0-24)
same,"Pre-Emergent herbicidal rating, G Nutsedge",Nutsedge [11]; [23],0 (0-24)
same,"Post-Emergent herbicidal rating, B Cocklebur",Cocklebur [12]; [24],1 (25-49)
same,"Post-Emergent herbicidal rating, H Quackgrass",Quackgrass [13]; [24],0 (0-24)
same,"Post-Emergent herbicidal rating, D Morningglory",Morningglory [14]; [24],0 (0-24)
same,"Post-Emergent herbicidal rating, J Bromus tectorum",Bromus tectorum [15]; [24],0 (0-24)
same,"Post-Emergent herbicidal rating, K Barnyard grass",Barnyard grass [16]; [24],0 (0-24)
same,"Post-Emergent herbicidal rating, A Canada Thistle",Canada Thistle [17]; [24],1 (25-49)
same,"Post-Emergent herbicidal rating, F Smartweed",Smartweed [18]; [24],0 (0-24)
same,"Post-Emergent herbicidal rating, I Johnsongrass",Johnsongrass [19]; [24],1 (25-49)
same,"Post-Emergent herbicidal rating, E Lambsquarter",Lambsquarter [20]; [24],2 (50-74)
same,"Post-Emergent herbicidal rating, C Velvetleaf",Velvetleaf [21]; [24],1 (25-49)
same,"Post-Emergent herbicidal rating, G Nutsedge",Nutsedge [22]; [24],0 (0-24)
Cn1cc(C(=O)OCCOc2ccccc2)c(-c2cccc(C(F)(F)F)c2)n1 [Example 22],"Pre-Emergent herbicidal rating, B Cocklebur",Cocklebur [1]; [25],0 (0-24)
same,"Pre-Emergent herbicidal rating, H Quackgrass",Quackgrass [2]; [25],0 (0-24)
same,"Pre-Emergent herbicidal rating, D Morningglory",Morningglory [3]; [25],1 (25-49)
same,"Pre-Emergent herbicidal rating, J Bromus tectorum",Bromus tectorum [4]; [25],0 (0-24)
same,"Pre-Emergent herbicidal rating, K Barnyard grass",Barnyard grass [5]; [25],0 (0-24)
same,"Pre-Emergent herbicidal rating, A Canada Thistle",Canada Thistle [6]; [25],3 (75-100)
same,"Pre-Emergent herbicidal rating, F Smartweed",Smartweed [7]; [25],0 (0-24)
same,"Pre-Emergent herbicidal rating, I Johnsongrass",Johnsongrass [8]; [25],0 (0-24)
same,"Pre-Emergent herbicidal rating, E Lambsquarter",Lambsquarter [9]; [25],3 (75-100)
same,"Pre-Emergent herbicidal rating, C Velvetleaf",Velvetleaf [10]; [25],0 (0-24)
same,"Pre-Emergent herbicidal rating, G Nutsedge",Nutsedge [11]; [25],0 (0-24)
same,"Post-Emergent herbicidal rating, B Cocklebur",Cocklebur [12]; [25],0 (0-24)
same,"Post-Emergent herbicidal rating, H Quackgrass",Quackgrass [13]; [25],0 (0-24)
same,"Post-Emergent herbicidal rating, D Morningglory",Morningglory [14]; [25],0 (0-24)
same,"Post-Emergent herbicidal rating, J Bromus tectorum",Bromus tectorum [15]; [25],0 (0-24)
same,"Post-Emergent herbicidal rating, K Barnyard grass",Barnyard grass [16]; [25],0 (0-24)
same,"Post-Emergent herbicidal rating, A Canada Thistle",Canada Thistle [17]; [25],1 (25-49)
same,"Post-Emergent herbicidal rating, F Smartweed",Smartweed [18]; [25],0 (0-24)
same,"Post-Emergent herbicidal rating, I Johnsongrass",Johnsongrass [19]; [25],0 (0-24)
same,"Post-Emergent herbicidal rating, E Lambsquarter",Lambsquarter [20]; [25],0 (0-24)
same,"Post-Emergent herbicidal rating, C Velvetleaf",Velvetleaf [21]; [25],0 (0-24)
same,"Post-Emergent herbicidal rating, G Nutsedge",Nutsedge [22]; [25],0 (0-24)
